Reference: ChEMBL document CHEMBL1201862, “PubChem BioAssay data set” (2004)
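How tested: cells in 96-well plates exposed to compound for 48 hours at five concentrations. GI50 marks 50% less growth.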 The source made the active and inactive calls. No stated cut-off is given here; in the data, active = GI50 up to about 1.1 µM and inactive = higher.

What was measured:
Test in all cases: NCI anticancer screen, dose series, 48 h
[1] = test system: NCI-H23
[2] = test system: UACC-257
[3] = test system: LOX IMVI
[4] = test system: Malme-3M
[5] = test system: MDA-MB-231
[6] = test system: TK-10
[7] = test system: CCRF-CEM
[8] = test system: MCF7
[9] = test system: MDA-MB-435
[10] = test system: UO-31
[11] = test system: SNB-75
[12] = test system: NCI-H522
[13] = test system: SK-MEL-5
[14] = test system: EKVX
[15] = test system: 786-0
[16] = test system: U-251
[17] = test system: RXF 393
[18] = test system: HCT-15
[19] = test system: MOLT-4
[20] = test system: MDA-N

Compound	GI50 [1]	GI50 [2]	GI50 [3]	GI50 [4]	GI50 [5]	GI50 [6]	GI50 [7]	GI50 [8]	GI50 [9]	GI50 [10]	GI50 [11]	GI50 [12]	GI50 [13]	GI50 [14]	GI50 [15]	GI50 [16]	GI50 [17]	GI50 [18] [µM]	GI50 [19]	GI50 [20]
COc1c(O)c2c(c3cc(C(=O)N4CCc5c4c(O)c(OC)c4[nH]c(C(=O)N6CC7CC78C6=CC(=O)c6[nH]cc(C)c68)cc54)[nH]c13)CCN2C(N)=O (stereo not drawn) [CC-1065]	0.000927 µM (active)	0.00352 µM (active)	0.000895 µM (active)	0.00209 µM (active)	0.486 µM (active)	0.0266 µM (active)	0.00507 µM (active)	0.0577 µM (active)	0.182 µM (active)	0.00834 µM (active)	0.00356 µM (active)	0.0205 µM (active)	0.0126 µM (active)	0.867 µM (active)	0.000381 µM (active)	0.000191 µM (active)	0.188 µM (active)	0.0149	0.0164 µM (active)	0.237 µM (active)
O=C(NCCCCCCNC(=O)n1cc(F)c(=O)[nH]c1=O)NCCCOCCOCCOCCOCCOCCOCCOCCOCCOCCOCCOCCOCCOCCOCCOCCOCCOCCOCCOCCOCCOCCCNC(=O)C(O)C(O)C(OC1OC(CO)C(O)C(O)C1O)C(O)CO (stereo not drawn)	22.5 µM (inactive)	59.4 µM (inactive)	18.9 µM (inactive)	35.8 µM (inactive)	> 71.4 µM (inactive)	> 100 µM (inactive)	> 83.8 µM (inactive)	6.07 µM (inactive)	19.3 µM (inactive)	13.4 µM (inactive)	16.4 µM (inactive)	87.9 µM (inactive)	20.5 µM (inactive)	> 88.9 µM (inactive)	17.8 µM (inactive)	> 89.7 µM (inactive)	80.9 µM (inactive)	17.5	37 µM (inactive)	10 µM (inactive)
C=CCOC(=O)NC1C(OC(C)[C@@H](NC(=O)OCc2ccccc2)C(=O)OC(C)(C)C)OC(COC(C)=O)C(OC(C)=O)C1OC(C)=O (stereo partly drawn)	> 100 µM (inactive)	> 100 µM (inactive)	86.7 µM (inactive)	> 100 µM (inactive)	15.1 µM (inactive)	> 100 µM (inactive)	53.3 µM (inactive)	> 100 µM (inactive)	39.4 µM (inactive)	17.2 µM (inactive)	2.85 µM (inactive)	63.8 µM (inactive)	> 100 µM (inactive)	> 100 µM (inactive)	> 100 µM (inactive)	> 100 µM (inactive)	> 100 µM (inactive)	> 100	25.8 µM (inactive)	> 100 µM (inactive)
O=C(Nn1c(-c2ccccc2)nc2ccccc2c1=O)c1ccc(Cl)cc1	95.1 µM (inactive)	> 100 µM (inactive)	> 100 µM (inactive)	> 100 µM (inactive)	> 100 µM (inactive)	86.3 µM (inactive)	> 100 µM (inactive)	> 100 µM (inactive)	91.2 µM (inactive)	65.6 µM (inactive)	27.1 µM (inactive)	50.6 µM (inactive)	23.4 µM (inactive)	> 100 µM (inactive)	> 100 µM (inactive)	84.3 µM (inactive)	> 100 µM (inactive)	> 100	59.6 µM (inactive)	> 100 µM (inactive)
CC(C)/C(Cl)=N\OC(=O)NNc1ccccc1	26.8 µM (inactive)	1.3 µM (inactive)	12.6 µM (inactive)	15.8 µM (inactive)	41.9 µM (inactive)	68.7 µM (inactive)	< 0.0333 µM (active)	8.93 µM (inactive)	1 µM (active)	0.0178 µM (active)	> 100 µM (inactive)	12.6 µM (inactive)	0.0966 µM (active)	15.3 µM (inactive)	29 µM (inactive)	37.6 µM (inactive)	> 100 µM (inactive)	21.1	< 0.01 µM (active)	20 µM (inactive)
CCOC(=O)C(C#N)C1=CC(=O)C(=O)c2ccc(OC)cc21 (stereo not drawn)	15.5 µM (inactive)	17 µM (inactive)	21.1 µM (inactive)	16.9 µM (inactive)	14.6 µM (inactive)	38.5 µM (inactive)	43.3 µM (inactive)	16.1 µM (inactive)	17.6 µM (inactive)	17.5 µM (inactive)	20.8 µM (inactive)	3.89 µM (inactive)	15.2 µM (inactive)	22.7 µM (inactive)	25.1 µM (inactive)	29.2 µM (inactive)	21.8 µM (inactive)	23.8	48.5 µM (inactive)	5.83 µM (inactive)
COC(=O)c1oc([N+](=O)[O-])c(Cl)c1Cl	8.73 µM (inactive)	7.89 µM (inactive)	6.05 µM (inactive)	7.43 µM (inactive)	7.35 µM (inactive)	7.36 µM (inactive)	2.21 µM (inactive)	2.04 µM (inactive)	7.8 µM (inactive)	8.07 µM (inactive)	7.78 µM (inactive)	1.7 µM (inactive)	9.08 µM (inactive)	19.8 µM (inactive)	4.14 µM (inactive)	8.11 µM (inactive)	12.7 µM (inactive)	7.57	2.19 µM (inactive)	7.98 µM (inactive)
CCc1ccc(Nc2cc(=O)[nH]c(SCc3ccccc3)n2)cc1	61.5 µM (inactive)	> 100 µM (inactive)	> 100 µM (inactive)	> 100 µM (inactive)	4.17 µM (inactive)	> 100 µM (inactive)	> 100 µM (inactive)	> 100 µM (inactive)	> 100 µM (inactive)	> 100 µM (inactive)	30.3 µM (inactive)	> 100 µM (inactive)	78 µM (inactive)	57.7 µM (inactive)	43.6 µM (inactive)		> 100 µM (inactive)	> 100	> 100 µM (inactive)	> 100 µM (inactive)
S=C1CC(c2ccc(Cl)cc2)Sc2ccccc2N1 (stereo not drawn)	37.2 µM (inactive)	> 100 µM (inactive)	40.8 µM (inactive)	53.2 µM (inactive)	30.4 µM (inactive)	46.7 µM (inactive)	51.9 µM (inactive)	39.4 µM (inactive)	87.1 µM (inactive)	> 100 µM (inactive)	> 10 µM (inactive)	21.6 µM (inactive)	25.3 µM (inactive)	34 µM (inactive)	34 µM (inactive)	41.3 µM (inactive)	16.2 µM (inactive)	90.8	> 10 µM (inactive)	> 100 µM (inactive)
N=C(N)NS(=O)(=O)c1ccc(NC(=O)c2cccc3c(NNc4ccc(C(=O)O)cc4)c4ccccc4nc23)cc1	> 100 µM (inactive)	> 100 µM (inactive)	48.4 µM (inactive)	93.1 µM (inactive)	61 µM (inactive)	> 100 µM (inactive)	25.8 µM (inactive)	> 100 µM (inactive)	95.7 µM (inactive)	32.7 µM (inactive)	> 100 µM (inactive)	51.1 µM (inactive)	99.1 µM (inactive)	26.6 µM (inactive)	> 100 µM (inactive)	34.6 µM (inactive)	> 100 µM (inactive)	> 100	44.9 µM (inactive)	> 100 µM (inactive)
COc1ccc(/C=C/C(=O)/C=C/c2ccc(OC)cc2)cc1	> 100 µM (inactive)	20 µM (inactive)	40.4 µM (inactive)	> 100 µM (inactive)	89.1 µM (inactive)	73.3 µM (inactive)	31.8 µM (inactive)	47.8 µM (inactive)	14.6 µM (inactive)	> 100 µM (inactive)	38.9 µM (inactive)	42.8 µM (inactive)	31.3 µM (inactive)	41.7 µM (inactive)	46.5 µM (inactive)	23.7 µM (inactive)	18.3 µM (inactive)	47.8	51.1 µM (inactive)	19 µM (inactive)
CC(C)(Cl)C(Br)CCC(Br)(CCl)C(Cl)CBr (stereo not drawn)	> 10 µM (inactive)	> 10 µM (inactive)	> 10 µM (inactive)	> 10 µM (inactive)	> 10 µM (inactive)	> 10 µM (inactive)	> 10 µM (inactive)	> 10 µM (inactive)	> 10 µM (inactive)	> 10 µM (inactive)	> 10 µM (inactive)	> 10 µM (inactive)	> 10 µM (inactive)	> 10 µM (inactive)	> 10 µM (inactive)	> 10 µM (inactive)	> 10 µM (inactive)	> 10	> 10 µM (inactive)	> 10 µM (inactive)
Cc1ccc(-c2c(C#N)c(S)n(NS(=O)(=O)c3ccccc3)c(=O)c2C#N)cc1	37.8 µM (inactive)	61 µM (inactive)	28.5 µM (inactive)	35.7 µM (inactive)	26.1 µM (inactive)	21.4 µM (inactive)	9.1 µM (inactive)	28.6 µM (inactive)	23 µM (inactive)	20.1 µM (inactive)	42.2 µM (inactive)	19.5 µM (inactive)	25 µM (inactive)	31 µM (inactive)	29.6 µM (inactive)	24.8 µM (inactive)	41.1 µM (inactive)	21.7	15.9 µM (inactive)	29.7 µM (inactive)
COC(=O)C(=O)C(C(=O)C(=O)Nc1nnc(S)[nH]1)c1nc2ccc([N+](=O)[O-])cc2nc1O (stereo not drawn)	> 100 µM (inactive)	> 100 µM (inactive)	> 100 µM (inactive)	> 100 µM (inactive)	> 100 µM (inactive)	> 100 µM (inactive)	> 100 µM (inactive)	92.7 µM (inactive)	> 100 µM (inactive)	82.8 µM (inactive)	> 100 µM (inactive)	> 100 µM (inactive)	> 100 µM (inactive)	> 100 µM (inactive)	> 100 µM (inactive)	> 100 µM (inactive)	> 100 µM (inactive)	> 100		> 100 µM (inactive)
